The source of these data is patent US8921563B2, “1-[(4-hydroxypiperidin-4-yl)methyl]pyridin-2(1H)-one derivatives, preparation methods and uses thereof” (Institue of Pharmacology and Toxicology Academy of Military …, priority 2010, dated 2014).

The test system of assay [1] is mice. Description: Hole board test in mice. It counts as in vivo. Conditions: long-term (23 days); for Number of Head dips / Time of head dipping: 5 min. On the procedure:
Hole board test, an animal model of anxiety established by Boissie, et al (1962), was performed in mice.
1) Experimental device: a transparent Perspex box (40×40×27 cm) which had four holes (3 cm in diameter, 1.8 cm in depth) in the floor. The distance of each hole center to its closest wall is 10 cm.
2) Experimental method: Male Kunming mice weighing 20-25 g. The mice were intragastrically administered with YL-0911 or vehicle (distilled water). After 23 days, the mice were placed at center of the hole board with their backs facing to the observer. A head dip was scored if the animal's head dipped into the hole at least up to eye level The latency to the first head-dip, the number of head-dips and the time spent in head-dipping were recorded for 5 min.

For assay [2], the system named is mice. Description: Novel object recognition test in mice. The class given is in vivo. Conditions: repeated daily, tested day 8, mice. On the procedure:
Novel object recognition test is a cognitive behavior model established by Lima, et al.
1) Experimental device: a white Perspex box (60×60×16 cm), two completely identical objects, and one completely different object.
2) Experimental method: Male Kunming mice weighing 20-25 g. The mice were intragastrically administered with YL-0911 or vehicle (distilled water) for 5 days. On day 6, after treatment with YL-0911 or vehicle, each mouse was placed into the Perspex box at the same place for 5 min as habituation. On day 7, the mice were administered YL-0911 or vehicle and then individually placed in the Perspex box at the same place containing two identical objects located in the two diagonal corners for 5 minutes. On day 8, mice were tested for memory using the same procedure as day 7 except that one of the familiar objects was replaced with a novel object.

The target in assay [3] is T1, 5-HT transport protein (SERT) (Rattus norvegicus, UniProt P31652).
T1 construct: Preparation of Membrane Proteins in Rat Hippocampi; from tissue; host or cells: Wistar rat hippocampus
T1 sequence (P31652 whole entry): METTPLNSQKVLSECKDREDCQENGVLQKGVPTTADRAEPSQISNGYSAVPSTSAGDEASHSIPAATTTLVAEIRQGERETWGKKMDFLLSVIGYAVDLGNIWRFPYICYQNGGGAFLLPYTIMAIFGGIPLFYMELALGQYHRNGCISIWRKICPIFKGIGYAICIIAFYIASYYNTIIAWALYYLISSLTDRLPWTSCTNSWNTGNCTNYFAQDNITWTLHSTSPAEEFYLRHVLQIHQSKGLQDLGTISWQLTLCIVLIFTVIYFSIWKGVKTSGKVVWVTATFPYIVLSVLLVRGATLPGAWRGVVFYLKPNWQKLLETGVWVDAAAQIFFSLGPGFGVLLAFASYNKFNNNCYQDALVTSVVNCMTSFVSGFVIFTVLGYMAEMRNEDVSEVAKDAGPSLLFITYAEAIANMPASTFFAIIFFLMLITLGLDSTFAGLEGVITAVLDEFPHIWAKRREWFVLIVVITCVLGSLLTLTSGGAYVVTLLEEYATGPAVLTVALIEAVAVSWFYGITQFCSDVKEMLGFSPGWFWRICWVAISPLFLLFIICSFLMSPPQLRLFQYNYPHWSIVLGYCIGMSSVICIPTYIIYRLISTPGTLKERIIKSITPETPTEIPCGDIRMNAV
Description: Screening: competitive binding test to SERT using [3H]-citalopram. The note with it: [3H]-citalopram 1 nM, read-out: Inhibition percent (I %), competitive binding to 5-HT transport protein (SERT). On the procedure:
The homogenate was centrifuged under 1000×g for 10 minutes and the supernatant was then centrifuged under 39000×g for 10 minutes. The precipitate was collected, and resuspended with 10 times volume of Tris-HCl buffer solution (pH 7.4) relative to the original weight, then centrifuged under 39000×g for 10 minutes. The precipitate was washed with the same buffer solution, centrifuged under 39000×g for 10 minutes and the precipitate was suspended with the above buffer solution. After sub-packaged (the whole operation procedures were performed under ice bath), the product was stored at −80° C. The protein concentration was measured by Lowrry method.

Regarding `O=c1ccccn1CC1(O)CCN(Cc2ccccc2)CC1` [Compound 1, 1-[(1-benzyl-4-hydroxypiperidin-4-yl)-methyl]-pyridin-2(1H)-one], the entries for the “the latency to the first head-dip” value in assay [1] (0.625 mg/kg p.o.), in assay [1] (1.25 mg/kg p.o.) and in assay [1] (5 mg/kg p.o.) were 62.60 ± 16.75 s, 33.00 ± 6.34 s and 31.60 ± 6.88 s, respectively. Besides, the “Number of Head dips” value is 6.40 ± 0.97 in assay [1] (0.625 mg/kg p.o.), 10.60 ± 1.17 in assay [1] (1.25 mg/kg p.o.) and 7.40 ± 1.00 in assay [1] (5 mg/kg p.o.). The “Time of head dipping” value in assay [1] (0.625 mg/kg p.o.) is 3.75 ± 0.91 s; in assay [1] (1.25 mg/kg p.o.) it was 6.86 ± 0.55 s; in assay [1] (5 mg/kg p.o.), 5.95 ± 0.93 s. Further, the results for the Recognition index in assay [2] (0.625 mg/kg p.o.) and in assay [2] (1.25 mg/kg p.o.) were 59.95 ± 2.74 and 64.76 ± 5.02, respectively. Moreover, the inhibition at 10 µM in assay [3] (compound 10^-5 mol/L) worked out at 100%. In assay [3] (compound 10^-7 mol/L), the inhibition at 0.1 µM amounted to 84%.

As usually defined, the inhibition is the share of the control response that was lost under treatment.
